# Source: patent US6153740A, “cDNA encoding nucleoside transporter” (University of Alberta, priority 1997, dated 2000)
# Entries after “also recorded” stand apart in the source; their conditions may differ. Like-named read-outs stand apart in the source and are kept apart here.
# B1: hCNT1a (Homo sapiens) (protein)
# chain: MENDPSRRRESISLTPVAKGLENMGADFLESLEGGQLPRSDLSPAEIRSSWSEAAPKPFSRWRNLQPALRARSFCREHMQLFRWIGTGLLCTGLSAFLLVACLLDFQRALALFVLTCVVLTFLGHRLLKRLLGPKLRRFLVKPQGHPRLLLWFKRGLALAAFLGLVLWLSLDTSQRPEQLVSFAGICVFVALLFACSKHHCAVSWRAVSWGLGLQFVLGLLVIRTEPGFIAFEWLGEQIRIFLSYTKAGSSFVFGEALVKDVFAFQVLPIIVFFSCVISVLYHVGLMQWVILKIAWLMQVTMGTTATETLSVAGNIFVSQTEAPLLIRPYLADMTLSEVHVVMTGGYATIAGSLLGAYISFGIDATSLIAASVMAAPCALALSKLVYPEVEESKFRREEGVKLTYGDAQNLIEAASTGAAISVKVVANIAANLIAFLAVLDFINAALSWLGDMVDIQGLSFQLICSYILRPVAFLMGVAWEDCPVVAELLGIKLFLNEFVAYQDLSKYKQRRLAGAEEWVGDRKQWISVRAEVLTTFALCGFANFSSIGIMLGGLTSMVPQRKSDFSQIVLRALFTGACVSLVNACMAGILYMPRGAEVDCMSLLNTTLSSSSFEIYQCCREAFQSVNPEFSPEALDNCCRFYNHTICAQ
# Columns and labels:
# CNT1 [1] = target: T1, CNT1 (Rattus norvegicus, UniProt Q62674); assay: uptake/influx of radiolabelled nucleosides in Xenopus oocytes injected with pQQH1 (rat CNT1) cRNA; format: cell-based; settings: for Vmax: rat CNT1, permeant = labelled substance
# T1 sequence (Q62674 1-648): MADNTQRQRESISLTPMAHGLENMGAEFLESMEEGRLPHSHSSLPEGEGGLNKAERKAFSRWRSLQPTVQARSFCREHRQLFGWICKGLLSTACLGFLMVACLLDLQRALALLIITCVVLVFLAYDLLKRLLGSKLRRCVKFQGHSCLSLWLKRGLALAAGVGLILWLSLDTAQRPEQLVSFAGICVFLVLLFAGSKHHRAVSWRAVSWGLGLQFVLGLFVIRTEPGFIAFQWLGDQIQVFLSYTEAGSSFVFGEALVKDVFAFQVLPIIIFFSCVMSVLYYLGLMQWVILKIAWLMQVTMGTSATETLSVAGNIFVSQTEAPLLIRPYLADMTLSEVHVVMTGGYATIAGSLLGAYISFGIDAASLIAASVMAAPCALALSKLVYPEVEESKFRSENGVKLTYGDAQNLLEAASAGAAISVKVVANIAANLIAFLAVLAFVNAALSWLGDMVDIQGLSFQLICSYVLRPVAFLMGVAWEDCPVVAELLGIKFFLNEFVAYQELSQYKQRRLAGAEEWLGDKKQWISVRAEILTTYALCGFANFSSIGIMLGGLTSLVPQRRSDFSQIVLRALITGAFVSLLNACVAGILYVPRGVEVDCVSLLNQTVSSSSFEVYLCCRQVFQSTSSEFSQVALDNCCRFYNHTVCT
# Experimental: (§1) Oocytes were injected with water or RNA transcribed in vitro from the nucleoside transporter cDNA (pQQH1). […] For panels c and d, the permeant concentration was 10 μM and competing nonradioactive nucleosides were present at a concentration of 1 mM.
# Oocytes injected with water or in vitro transcribed RNA from pQQH1 were incubated with radiolabeled permanent (10 μM) for 30 min (open columns) or 1 h (hatched columns) at 20° C. Each value represents the mean ±S. E. of 8-10 ooctyes.
# (§2) Remaining template was removed by digestion with RQ1 DNase. Oocytes were treated with collagenase to remove follicular layers (Huang et al, 1993) and injected with 10 ng of pQQH1 cRNA or water. […] At the end of the incubation, extracellular label was removed by six rapid ice-cold washes in the appropriate transport buffer. Individual oocytes were dissolved in 5% SDS for quantitation of oocyte-associated ^3 H by liquid scintillation counting (LS 6000 IC, Beckman).
# CNT1 [2] = target: T1, CNT1; assay: inhibition of CNT1-mediated nucleoside (uridine, AZT, ddC) transport in Xenopus oocytes; format: cell-based; settings: for selective inhibition of uridine and thymidine fluxes (rCNT1): adenosine, cytidine, uridine>>guanosine, inosine; for effect on expressed uridine fluxes/transport: inhibitor 1 mM
# Experimental: as §1, §2
# hCNT1b [3] = target: T2, hCNT1b (Homo sapiens, UniProt O00337); assay: influx of radiolabelled nucleosides in Xenopus oocytes injected with hCNT1b RNA transcript; format: cell-based
# T2 sequence (O00337 2-649 V189I/N409S/D521N): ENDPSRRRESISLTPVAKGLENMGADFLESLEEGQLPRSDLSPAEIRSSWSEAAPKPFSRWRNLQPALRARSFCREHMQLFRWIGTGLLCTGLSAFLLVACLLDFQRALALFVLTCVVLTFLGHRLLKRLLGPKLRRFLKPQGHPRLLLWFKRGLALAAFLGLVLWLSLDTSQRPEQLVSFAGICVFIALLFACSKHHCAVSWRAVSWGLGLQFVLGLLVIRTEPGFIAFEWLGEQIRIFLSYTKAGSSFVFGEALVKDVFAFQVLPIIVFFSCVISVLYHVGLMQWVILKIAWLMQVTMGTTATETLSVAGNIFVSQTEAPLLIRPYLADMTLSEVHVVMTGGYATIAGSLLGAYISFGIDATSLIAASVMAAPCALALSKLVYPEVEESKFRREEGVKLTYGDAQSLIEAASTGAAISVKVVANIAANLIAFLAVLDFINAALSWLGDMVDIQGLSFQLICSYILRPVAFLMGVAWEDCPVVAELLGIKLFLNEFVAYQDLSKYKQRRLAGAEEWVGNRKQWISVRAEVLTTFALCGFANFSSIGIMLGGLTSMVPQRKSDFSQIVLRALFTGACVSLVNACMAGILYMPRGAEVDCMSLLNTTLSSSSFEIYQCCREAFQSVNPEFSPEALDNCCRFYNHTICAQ
# Experimental: (§3) Defolliculated oocytes (Huang et al. 1993) were injected with either 10 nl of water containing 10 ng RNA transcript or 10 nl of water alone. Nucleoside uptake was measured after 3 d and was traced with the respective [^3 H] or [^14 C]nucleoside (Moravek Biochemicals)(5 μC 3H/ml, 1 μC 14C/ml). […] The transport buffer for adenosine influx experiments contained 1 μM deoxycoformycin to inhibit adenosine deaminase activity. Results are presented as means ±SEM for 10-12 individual oocytes. Kinetic constants were determined by non-linear regression analysis (ENZFITTER, Elsevier-Biosoft). Each experiment was performed at least twice on different batches of oocytes.
# hCNT1b [4] = target: T2, hCNT1b; assay: inhibition of hCNT1b-mediated influx of [3H]uridine in Xenopus oocytes; format: cell-based; settings: uridine 10 μM; for inhibition of uridine fluxes, hCNT1b: competitor 1 mM (FIG. 12B)
# Excerpt: H2 O, water-injected oocytes.
# hCNT1a [5] = target: T3, hCNT1a (Homo sapiens, UniProt O00337); assay: inhibition of hCNT1a-mediated influx of [3H]uridine in Xenopus oocytes; settings: uridine 10 μM; for inhibition of uridine fluxes, hCNT1a: competitor 1 mM (FIG. 12A), guanosine also in FIG. 13
# T3 sequence (O00337 with tags, fused parts or gaps E34G/INS140V): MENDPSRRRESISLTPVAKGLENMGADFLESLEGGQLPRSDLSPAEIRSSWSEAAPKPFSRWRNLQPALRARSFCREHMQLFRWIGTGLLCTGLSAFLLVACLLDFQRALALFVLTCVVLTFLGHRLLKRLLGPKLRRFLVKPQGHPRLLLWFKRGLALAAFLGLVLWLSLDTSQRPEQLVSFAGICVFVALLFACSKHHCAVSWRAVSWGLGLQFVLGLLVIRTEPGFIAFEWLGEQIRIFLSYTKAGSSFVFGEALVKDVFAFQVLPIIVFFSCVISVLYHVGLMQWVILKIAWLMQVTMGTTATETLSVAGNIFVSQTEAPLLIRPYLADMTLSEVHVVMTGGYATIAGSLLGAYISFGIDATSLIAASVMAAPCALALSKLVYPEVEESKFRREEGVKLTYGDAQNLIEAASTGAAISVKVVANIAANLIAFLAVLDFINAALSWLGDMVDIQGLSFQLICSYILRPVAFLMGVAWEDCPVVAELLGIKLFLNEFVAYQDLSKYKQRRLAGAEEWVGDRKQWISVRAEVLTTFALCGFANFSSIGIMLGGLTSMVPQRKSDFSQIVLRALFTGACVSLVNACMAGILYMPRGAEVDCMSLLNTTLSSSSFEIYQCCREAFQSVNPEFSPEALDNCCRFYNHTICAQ
# Experimental: H2 O, water-injected oocytes. Fluxes were not corrected for the contribution of endogenous transport activity.
# as §3
# hCNT1a [6] = target: T3, hCNT1a; assay: influx of radiolabelled nucleosides in Xenopus oocytes injected with hCNT1a RNA transcript
# Experimental: Oocytes were injected with either water alone or water containing hCNT1a RNA transcript.
# Oocytes were injected with either water alone (.tangle-solidup.) or water containing hCNT1a RNA transcript (.smallcircle.,.circle-solid.).
# Adenosine, guanosine and AZT (10 μM) fluxes were compared in the same batch of oocytes injected either with water (open columns) or with RNA transcript for hCNT1a or rCNT1 (hatched and solid columns, respectively).
# as §3
# [7] = tested on: human erythrocyte es transporter; settings: cited from earlier work
# human erythrocytes = settings: cited from earlier work
# rat jejunum = assay: uptake of [3H]AZT by rat jejunum in vivo
# [8] = substrate: O=c1ccn([C@@H]2O[C@H](CO)[C@@H](O)[C@H]2O)c(=O)[nH]1; assay: cells, lysate or membranes; settings: other: hCNT1a; 20.0 °C
# [9] = 10 μM, same experiment as adenosine (FIG. 14A)
molecule,measurement,setting,value
Nc1nc2c(ncn2[C@@H]2O[C@H](CO)[C@@H](O)[C@H]2O)c(=O)[nH]1 [guanosine],"mediated flux, rCNT1",CNT1 [1]; 10 μM permeant (FIG. 14),0.05±0.01 pmol/oocyte.10 min^-1
same,selective inhibition of uridine and thymidine fluxes (rCNT1),CNT1 [2],">>guanosine, inosine"
same,"fluxes, hCNT1b (results not shown)",hCNT1b [3],very low guanosine fluxes
same,"inhibition of uridine fluxes, hCNT1b",hCNT1b [4],not
same,"inhibition of uridine fluxes, hCNT1a",hCNT1a [5],not and not inhibited
same,"permeant quality, hCNT1",hCNT1a [6],poor CNT1 permeant; also recorded: poor hCNT1 permeants
same,"mediated flux, hCNT1a",hCNT1a [6]; 10 μM permeant (FIG. 14),0.06±0.01 pmol/oocyte.10 min^-1
O=c1cc[nH]c(=O)[nH]1 [Uracil],effect on expressed uridine fluxes/transport,CNT1 [2],no effect
Cc1cn([C@H]2C[C@H](O)[C@@H](CO)O2)c(=O)[nH]c1=O [thymidine],selective inhibition of uridine and thymidine fluxes (rCNT1),CNT1 [2],selective inhibition
same,"inhibition of uridine fluxes, hCNT1b",hCNT1b [4],inhibited
same,"inhibition of uridine fluxes, hCNT1a",hCNT1a [5],inhibited
"Nc1ccn([C@H]2CC[C@@H](CO)O2)c(=O)n1 [ddC, 2',3'-dideoxycytidine]",CNT1-mediated uptake/transport,CNT1 [1]; 10 μM permeant,large increases
same,Na+ dependence of initial rate of expressed uptake,"CNT1 [1]; 10 μM, 10-min flux",93%
same,Vmax,CNT1 [1],20 pmol/oocyte.min^-1
same,IC50,CNT1 [2],< 1000 µM
same,inhibition of hCNT1b-mediated influx of uridine,hCNT1b [4]; analog 5 mM (FIG. 12B),inhibited
same,Km,"[7]; Domin et al, 1993",23000 µM
same,transport by equilibrative nucleoside transporters,[7],low affinity es substrate
same,rate of entry into human erythrocytes relative to those of thymidine and cytidine,human erythrocytes,< 2%
same,inhibition of hCNT1a-mediated influx of uridine,hCNT1a [5]; analog 5 mM (FIG. 12A),inhibited
"Nc1nc2c(ncn2[C@H]2CC[C@@H](CO)O2)c(=O)[nH]1 [ddG, 2',3'-dideoxyguanosine]",effect on expressed uridine fluxes/transport,CNT1 [2],no effect
O=c1ccn([C@@H]2O[C@H](COP(=O)(O)OP(=O)(O)OP(=O)(O)O)[C@@H](O)[C@H]2O)c(=O)[nH]1 [UTP],effect on expressed uridine fluxes/transport,CNT1 [2],no effect
O=c1ccn([C@@H]2O[C@H](COP(=O)(O)O)[C@@H](O)[C@H]2O)c(=O)[nH]1 [UMP],effect on expressed uridine fluxes/transport,CNT1 [2],no effect
O=c1ccn([C@@H]2O[C@H](CO)[C@@H](O)[C@H]2O)c(=O)[nH]1 [uridine],intracellular concentration higher than that in the extracellular medium,"CNT1 [1]; 10 μM uridine, 30 min",approximately 6 -fold
same,cellular content of uridine after 30 min,"CNT1 [1]; 10 μM, 20° C., 30 min, pQQH1 cRNA-injected",64 pmol/oocyte
same,"uridine flux, rCNT1",CNT1 [1]; [9],5.60±0.38 pmol/oocyte.min^-1
same,effect of substitution of Cl- by gluconate on flux,"CNT1 [1]; 100 mM NaCl or sodium gluconate, 10 mM HEPES, pH 7.6",unaffected
same,Vmax (uridine transport),CNT1 [1]; rat CNT1,21 pmol/oocyte-min^-1
same,Vmax,CNT1 [1],21 pmol/oocyte.min^-1
same,inhibition at 1000 µM,CNT1 [2]; read-out: inhibition of expressed AZT uptake,> 95%
same,inhibition at 1000 µM,CNT1 [2]; read-out: inhibition of expressed ddC uptake,> 95%
same,"Vmax, influx of uridine",hCNT1b [3]; hCNT1b,22±2 pmol/oocyte.min^-1
same,Km,"hCNT1b [3]; read-out: apparent Km, influx of uridine, hCNT1b",37 ± 10 µM
same,"inhibition of uridine fluxes, hCNT1b",hCNT1b [4],inhibited
same,inhibition of [3H]AZT uptake by rat jejunum in vivo,rat jejunum,inhibited by uridine
same,"inhibition of uridine fluxes, hCNT1a",hCNT1a [5],inhibited
same,uridine influx in Na+-medium,"hCNT1a [6]; 10 μM, 100 mM NaCl (FIG. 9)",4.88±0.70 pmol/oocyte.min^-1
same,uridine influx in choline-medium,"hCNT1a [6]; 10 μM, 100 mM choline chloride (FIG. 9)",0.18±0.01 pmol/oocyte.min^-1
same,"uridine flux, hCNT1a",hCNT1a [6]; [9],3.68±0.46 pmol/oocyte.min^-1
same,Na+-independent uridine influx,hCNT1a [6]; 50 μM uridine (FIG. 11),0.81±0.14 pmol/oocyte.min^-1
same,"Vmax, influx of uridine",hCNT1a [6]; hCNT1a,26±1 pmol/oocyte.min^-1
OC[C@H]1O[C@@H](n2cnc3c(O)ncnc32)[C@H](O)[C@@H]1O [inosine],selective inhibition of uridine and thymidine fluxes (rCNT1),CNT1 [2],">>guanosine, inosine"
same,"inhibition of uridine fluxes, hCNT1b",hCNT1b [4],not
same,"inhibition of uridine fluxes, hCNT1a",hCNT1a [5],not
O=c1ccn([C@@H]2O[C@H](COP(=O)(O)OP(=O)(O)O)[C@@H](O)[C@H]2O)c(=O)[nH]1 [UDP],effect on expressed uridine fluxes/transport,CNT1 [2],no effect
"OC[C@@H]1CC[C@H](n2cnc3c(O)ncnc32)O1 [ddl, 2',3'-dideoxyinosine]",effect on expressed uridine fluxes/transport,CNT1 [2],no effect
Nc1ccn([C@@H]2O[C@H](CO)[C@@H](O)[C@H]2O)c(=O)n1 [cytidine],selective inhibition of uridine and thymidine fluxes (rCNT1),CNT1 [2],selective inhibition
same,"inhibition of uridine fluxes, hCNT1b",hCNT1b [4],inhibited
same,"inhibition of uridine fluxes, hCNT1a",hCNT1a [5],inhibited
B1,Km,[8],45 ± 8 µM
